For one assay, the species on record is Mus musculus. The assay can be described thus: In vitro immunosuppressive activity in murine splenic T cells. The format is functional, cell-based. The settings on record: T-cell.
Assay [1] concerns the target Peptidyl-prolyl cis-trans isomerase FKBP1A (Homo sapiens, UniProt P62942). The assay can be described thus: Effective concentration determined was towards FK506 binding protein 12 by competitive binding assay using [3H]-dihydro FK-506 as radioligand.

Chain of Peptidyl-prolyl cis-trans isomerase FKBP1A (P62942 whole entry): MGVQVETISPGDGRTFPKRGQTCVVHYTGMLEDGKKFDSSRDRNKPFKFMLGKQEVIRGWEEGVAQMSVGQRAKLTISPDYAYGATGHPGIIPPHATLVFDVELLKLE

Turning to `CC[C@@H]1/C=C(\C)C[C@H](C)C[C@H](OC)[C@H]2O[C@@](O)(C(=O)C(=O)N3CCCC[C@H]3C(=O)O[C@H](/C(C)=C/[C@@H]3CC[C@@H](OC(=O)Cc4ccccc4)[C@H](OC)C3)[C@H](C)[C@@H](O)CC1=O)[C@H](C)C[C@@H]2OC`, in the assay filed under Mus musculus, the IC50 (usually the point on the concentration scale where inhibition reaches its midpoint) stood at 3.5 nM. As for `CC[C@@H]1/C=C(\C)C[C@H](C)C[C@H](OC)[C@H]2O[C@@](O)(C(=O)C(=O)N3CCCC[C@H]3C(=O)O[C@H](/C(C)=C/[C@@H]3CC[C@@H](Oc4ccccc4)[C@H](OC)C3)[C@H](C)[C@@H](O)CC1=O)[C@H](C)C[C@@H]2OC`, the IC50 in the assay listed under Mus musculus turned out to be 5.4 nM. Also, the EC50 (as a rule, the concentration needed to bring the measured effect to its halfway point) in assay [1] came to 12 nM. The corresponding values for `CC[C@@H]1/C=C(\C)C[C@H](C)C[C@H](OC)[C@H]2O[C@@](O)(C(=O)C(=O)N3CCCC[C@H]3C(=O)O[C@H](/C(C)=C/[C@@H]3CC[C@@H](OCCCc4ccccc4)[C@H](OC)C3)[C@H](C)[C@@H](O)CC1=O)[C@H](C)C[C@@H]2OC` are 3.5 nM and 32 nM. Consider `CC[C@@H]1/C=C(\C)C[C@H](C)C[C@H](OC)[C@H]2O[C@@](O)(C(=O)C(=O)N3CCCC[C@H]3C(=O)O[C@H](/C(C)=C/[C@@H]3CC[C@@H](OCC(O)c4ccccc4)[C@H](OC)C3)[C@H](C)[C@@H](O)CC1=O)[C@H](C)C[C@@H]2OC` (some centres undefined), for which the IC50 in the assay filed under Mus musculus was determined as 0.18 nM. In the assay listed under Mus musculus, `C=C(CO[C@@H]1CC[C@@H](/C=C(\C)[C@H]2OC(=O)[C@@H]3CCCCN3C(=O)C(=O)[C@]3(O)O[C@H]([C@@H](OC)C[C@@H](C)C/C(C)=C/[C@@H](CC)C(=O)C[C@H](O)[C@H]2C)[C@@H](OC)C[C@H]3C)C[C@H]1OC)c1ccccc1` had an IC50 of 1 nM. As to `CC[C@@H]1/C=C(\C)C[C@H](C)C[C@H](OC)[C@H]2O[C@@](O)(C(=O)C(=O)N3CCCC[C@H]3C(=O)O[C@H](/C(C)=C/[C@@H]3CC[C@@H](OCCO)[C@H](OC)C3)[C@H](C)[C@@H](O)CC1=O)[C@H](C)C[C@@H]2OC`, in the assay filed under Mus musculus, it took 4.3 nM to reach half-maximal inhibition (IC50). Consider `CC[C@@H]1/C=C(\C)C[C@H](C)C[C@H](OC)[C@H]2O[C@@](O)(C(=O)C(=O)N3CCCC[C@H]3C(=O)O[C@H](/C(C)=C/[C@@H]3CC[C@@H](OCc4ccccc4)[C@H](OC)C3)[C@H](C)[C@@H](O)CC1=O)[C@H](C)C[C@@H]2OC`, for which it took 3 nM to reach half-maximal inhibition in the assay filed under Mus musculus (IC50). Moreover, it took 5.3 nM to reach a half-maximal effect in assay [1] (EC50). In turn, `CC[C@@H]1/C=C(\C)C[C@H](C)C[C@H](OC)[C@H]2O[C@@](O)(C(=O)C(=O)N3CCCC[C@H]3C(=O)O[C@H](/C(C)=C/[C@@H]3CC[C@@H](OCCc4ccccc4)[C@H](OC)C3)[C@H](C)[C@@H](O)CC1=O)[C@H](C)C[C@@H]2OC` registered an IC50 in the assay filed under Mus musculus of 0.61 nM. The compound further yielded an EC50 in assay [1] of 9.2 nM. `CC[C@@H]1/C=C(\C)C[C@H](C)C[C@H](OC)[C@H]2O[C@@](O)(C(=O)C(=O)N3CCCC[C@H]3C(=O)O[C@H](/C(C)=C/[C@@H]3CC[C@@H](OCC(=O)c4ccccc4)[C@H](OC)C3)[C@H](C)[C@@H](O)CC1=O)[C@H](C)C[C@@H]2OC` registered an IC50 in the assay filed under Mus musculus of 0.27 nM.

In turn, `CC[C@@H]1/C=C(\C)C[C@H](C)C[C@H](OC)[C@H]2O[C@@](O)(C(=O)C(=O)N3CCCC[C@H]3C(=O)O[C@H](/C(C)=C/[C@@H]3CC[C@@H](O)[C@H](OC)C3)[C@H](C)[C@@H](O)CC1=O)[C@H](C)C[C@@H]2OC` [ASCOMYCIN] came in with an IC50 in the assay filed under Mus musculus of 0.69 nM.

The values are drawn from ChEMBL document CHEMBL1132664, “C32-O-phenalkyl ether derivatives of the immunosuppressant ascomycin: a tether length study” (Bioorg Med Chem Lett, 1999).
